# Measurements from PubChem BioAssay (NCI).
#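 Grown in 96-well plates, cells were treated for 48 hours with each compound at five concentrations. Insufficient inhibition: endpoint recorded as highest concentration tested. Definition used: TGI = concentration required for complete inhibition of growth.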
# How the values were obtained:
# Experiment in all cases: NCI tumour cell line growth inhibition, 48 h
# SN12C renal = test system: SN12C renal
# SW-620 colon = test system: SW-620 colon
# CAKI-1 renal = test system: CAKI-1 renal
# P388 leukemia = test system: P388 leukemia
# NCI-H522 lung = test system: NCI-H522 lung
# CCRF-CEM leukemia = test system: CCRF-CEM leukemia
# HOP-18 NSCLC = test system: HOP-18 NSCLC
# SK-MEL-5 melanoma = test system: SK-MEL-5 melanoma
# BT-549 breast = test system: BT-549 breast
# PC-3 prostate = test system: PC-3 prostate
# HCT-116 colon = test system: HCT-116 colon
# KM12 colon = test system: KM12 colon
# SNB-78 CNS = test system: SNB-78 CNS
# RPMI-8226 leukemia = test system: RPMI-8226 leukemia
# UO-31 renal = test system: UO-31 renal
# DMS 114 small cell lung = test system: DMS 114 small cell lung
# DMS 273 small cell lung = test system: DMS 273 small cell lung
# P388/ADR leukemia = test system: P388/ADR leukemia
# SF-539 CNS = test system: SF-539 CNS
# HS 578T breast = test system: HS 578T breast
# DU-145 prostate = test system: DU-145 prostate
# LOX IMVI melanoma = test system: LOX IMVI melanoma
# A549 NSCLC = test system: A549 NSCLC
# A498 renal = test system: A498 renal
# HOP-92 NSCLC = test system: HOP-92 NSCLC
# MOLT-4 leukemia = test system: MOLT-4 leukemia
# SK-MEL-2 melanoma = test system: SK-MEL-2 melanoma
# OVCAR-8 ovarian = test system: OVCAR-8 ovarian
# OVCAR-4 ovarian = test system: OVCAR-4 ovarian
# TK-10 renal = test system: TK-10 renal
# KM20L2 colon = test system: KM20L2 colon
# HT29 colon = test system: HT29 colon
# M14 melanoma = test system: M14 melanoma
# MDA-MB-231 breast = test system: MDA-MB-231 breast
# MCF7 breast = test system: MCF7 breast
# IGROV1 ovarian = test system: IGROV1 ovarian
# SNB-19 CNS = test system: SNB-19 CNS
# RXF 393 renal = test system: RXF 393 renal
# SK-OV-3 ovarian = test system: SK-OV-3 ovarian
# EKVX NSCLC = test system: EKVX NSCLC
# U251 CNS = test system: U251 CNS
# OVCAR-5 ovarian = test system: OVCAR-5 ovarian
# K-562 leukemia = test system: K-562 leukemia
# OVCAR-3 ovarian = test system: OVCAR-3 ovarian
# MDA-MB-435 = test system: MDA-MB-435
# HCC-2998 colon = test system: HCC-2998 colon
# HL-60(TB) leukemia = test system: HL-60(TB) leukemia
# M19-MEL melanoma = test system: M19-MEL melanoma
# SF-295 CNS = test system: SF-295 CNS
# MALME-3M melanoma = test system: MALME-3M melanoma
# HOP-62 NSCLC = test system: HOP-62 NSCLC
# NCI-H23 lung = test system: NCI-H23 lung
# UACC-62 melanoma = test system: UACC-62 melanoma
# UACC-257 melanoma = test system: UACC-257 melanoma
# DLD-1 colon = test system: DLD-1 colon
# HCT-15 colon = test system: HCT-15 colon
# SF-268 CNS = test system: SF-268 CNS
# NCI-H460 lung = test system: NCI-H460 lung
# MDA-N = test system: MDA-N
# NCI/ADR-RES ovarian = test system: NCI/ADR-RES ovarian
# COLO 205 colon = test system: COLO 205 colon
# SNB-75 CNS = test system: SNB-75 CNS
# NCI-H226 lung = test system: NCI-H226 lung
# SN12K1 renal = test system: SN12K1 renal
# T-47D breast = test system: T-47D breast
# SK-MEL-28 melanoma = test system: SK-MEL-28 melanoma
compound,measurement,setting,value
Cc1c2cc[n+](C)cc2c(C)c2c1[nH]c1ccc(O)cc12,TGI,SN12C renal,15.5 µM
same,TGI,SW-620 colon,> 100 µM
same,TGI,CAKI-1 renal,> 100 µM
same,TGI,P388 leukemia,38.7 µM
same,TGI,NCI-H522 lung,55.9 µM
same,TGI,CCRF-CEM leukemia,> 92.6 µM
same,TGI,HOP-18 NSCLC,> 94.5 µM
same,TGI,SK-MEL-5 melanoma,58.8 µM
same,TGI,BT-549 breast,71.1 µM
same,TGI,PC-3 prostate,> 100 µM
same,TGI,HCT-116 colon,> 91.6 µM
same,TGI,KM12 colon,> 86.9 µM
same,TGI,SNB-78 CNS,> 100 µM
same,TGI,RPMI-8226 leukemia,> 100 µM
same,TGI,UO-31 renal,86.8 µM
same,TGI,DMS 114 small cell lung,69.6 µM
same,TGI,DMS 273 small cell lung,> 78.6 µM
same,TGI,P388/ADR leukemia,> 77.4 µM
same,TGI,SF-539 CNS,75.2 µM
same,TGI,HS 578T breast,5.7 µM
same,TGI,DU-145 prostate,74.7 µM
same,TGI,LOX IMVI melanoma,> 96.4 µM
same,TGI,A549 NSCLC,99.3 µM
same,TGI,A498 renal,99.4 µM
same,TGI,HOP-92 NSCLC,52.4 µM
same,TGI,MOLT-4 leukemia,58.3 µM
same,TGI,SK-MEL-2 melanoma,> 96.9 µM
same,TGI,OVCAR-8 ovarian,> 98.3 µM
same,TGI,OVCAR-4 ovarian,> 100 µM
same,TGI,TK-10 renal,> 100 µM
same,TGI,KM20L2 colon,> 100 µM
same,TGI,HT29 colon,> 81.1 µM
same,TGI,M14 melanoma,20.5 µM
same,TGI,MDA-MB-231 breast,> 100 µM
same,TGI,MCF7 breast,> 39.4 µM
same,TGI,IGROV1 ovarian,> 100 µM
same,TGI,SNB-19 CNS,22.5 µM
same,TGI,RXF 393 renal,> 100 µM
same,TGI,SK-OV-3 ovarian,> 100 µM
same,TGI,EKVX NSCLC,83.4 µM
same,TGI,U251 CNS,25 µM
same,TGI,OVCAR-5 ovarian,> 100 µM
same,TGI,K-562 leukemia,> 82.1 µM
same,TGI,OVCAR-3 ovarian,> 89.3 µM
same,TGI,MDA-MB-435,> 100 µM
same,TGI,HCC-2998 colon,98.7 µM
same,TGI,HL-60(TB) leukemia,> 87.9 µM
same,TGI,M19-MEL melanoma,48 µM
same,TGI,SF-295 CNS,64.7 µM
same,TGI,MALME-3M melanoma,26.4 µM
same,TGI,HOP-62 NSCLC,35 µM
same,TGI,NCI-H23 lung,63.4 µM
same,TGI,UACC-62 melanoma,82.1 µM
same,TGI,UACC-257 melanoma,> 90.6 µM
same,TGI,DLD-1 colon,> 100 µM
same,TGI,HCT-15 colon,> 100 µM
same,TGI,SF-268 CNS,23.7 µM
same,TGI,NCI-H460 lung,24.7 µM
same,TGI,MDA-N,> 100 µM
same,TGI,NCI/ADR-RES ovarian,> 100 µM
same,TGI,COLO 205 colon,> 91.9 µM
same,TGI,SNB-75 CNS,25.7 µM
same,TGI,NCI-H226 lung,16.6 µM
same,TGI,SN12K1 renal,> 82.7 µM
same,TGI,T-47D breast,11 µM
same,TGI,SK-MEL-28 melanoma,66 µM
